Results on 8 compounds are retold here after US3972883A, “1,6-Dimethyl-8β-[2' or 3'-pyrroyloxyethyl or substituted pyrroyloxyethyl]-10α-methoxyergolene compounds” (Societa Farmaceutici Italia S.p.A., priority 1973, dated 1976).

Series [1] can be described thus: Therapeutic index (LD50/ID50), oral. Conditions: in vivo, os, LD50 in mice, ID50 in rats. As to the method:
(§1) For the adrenolytic activity "in vivo" the method of Luduena et al. (Arch. int. Pharmacodyn., 122, 111, 1959) has been used, based on the evaluation of the protective action of the adrenolytic compounds against the lethal effects of Adrenaline.
(§2) The drugs under examination are administered by the endovenous route dissolved in water, and by the oral route they are dissolved or suspended in 5% arabic gum, respectively at 5 and 60 minutes before a fixed dose of 200 mcg/Kg of Adrenaline by the endovenous route.
(§3) Always 10 rats have been employed per group.
(§4) The activity of the drug is expressed as the dose protecting 50% of the animals from the lethal effects of Adrenaline administered by the endovenous route (ED50).
(§5) In order to evaluate the toxicity of the drugs under examination, increasing doses are administered to groups of 5-10 mice which are then followed for a period of 7 days.
(§6) For administration by the oral route, the compounds are dissolved or suspended, according to the solubility, in 5% arabic gum. The LD50 expresses the dose of drug which causes the death of 50% of the animals.

In series [2] the test system is lethal effects of Adrenaline. The series is described as follows: Adrenolytic activity "in vivo": protection against the lethal effects of Adrenaline (Luduena et al.). The note with it: Rattus norvegicus, po; rats, os, 60 minutes before 200 mcg/Kg Adrenaline endovenous; read-out: ID50 (dose protecting 50% of the animals from the lethal effects of Adrenaline). The procedure:
as §1, §2, §3, §4

Series [3] is described as follows: Toxicity: LD50 by the oral route, 7 days follow-up. The note with it: mouse, in vivo, mice, os, followed for 7 days. As to the method: as §5, §6
For series [4], the system named is contractions caused by Adrenaline in seminal small bladder of Guinea-pig. The series is described as follows: Adrenolytic activity "in vitro": inhibition of contractions induced by Adrenaline in isolated seminal small bladder. The note with it: Tyrode, 38°C, 3 minutes of contact, 1 mcg/ml Adrenaline. The procedure:
The adrenolytic activity of the new esters has been studied in comparison with that of Nicergoline [1,6-dimethyl-8β-(5'-bromonicotinoyloxymethyl)-10α-methoxyergoline] and of dihydroergotamine. The activity "in vitro" has been determined employing seminal small bladder of Guinea-pig immersed in Tyrode liquid wherein oxygen and 5% carbon dioxide are bubbled.
The bath temperature is maintained constant at 38°C. The contractions induced by Adrenaline are registered on a chimograph by means of an isotonic lever. The activity of the drug under examination is expressed as the concentration in mcg/ml able, after 3 minutes of contact, to inhibit 50% of the contractions caused by 1 mcg/ml of Adrenaline (IC50).

Series [5] can be described thus: Pharmacological activity of intermediates, general statement.

Usually LD50 stands for the dose at which mortality reaches 50%. Read a low LD50 as a more toxic substance. `CO[C@]12C[C@@H](CCOC(=O)c3c(C)cc(C)n3C)CN(C)[C@@H]1Cc1cn(C)c3cccc2c13` [1,6-Dimethyl-8β-[1',3',5'-trimethyl-2'-pyrroyloxyethyl]-10α-methoxyergoline]: the selectivity ratio in series [1] was found to be 1300. Moreover, the ED50 in series [2] is 0.1 mg/kg. The LD50 at 168 h in series [3] is 100 mg/kg.
Turning to `CCn1cccc1C(=O)OCC[C@H]1CN(C)[C@@H]2Cc3cn(C)c4cccc(c34)[C@@]2(OC)C1` [1,6-Dimethyl-8β-[1'-ethyl-2'-pyrroyloxyethyl]-10α-methoxyergoline], the selectivity ratio in series [1] turned out to be 5200. Moreover, the ED50 in series [2] came to 0.025 mg/kg. This compound displayed an LD50 at 168 h in series [3] of 180 mg/kg.
Turning to `CO[C@]12C[C@@H](CCOC(=O)c3cc[nH]c3C)CN(C)[C@@H]1Cc1cn(C)c3cccc2c13` [1,6-Dimethyl-8β-[2'-methyl-3'-pyrroyloxy-ethyl]-10α-methoxyergoline], the selectivity ratio in series [1] was determined as 1300. Moreover, the ED50 in series [2] was determined as 0.1 mg/kg. Moreover, the LD50 at 168 h in series [3] was determined as 100 mg/kg. Besides, the “IC50 (concentration inhibiting 50% of the contractions caused by 1 mcg/ml of Adrenaline)” value in series [4] came out at 1 ng/mL.
For the compound `CO[C@]12C[C@@H](CCOC(=O)c3ccc[nH]3)CN(C)[C@@H]1Cc1cn(C)c3cccc2c13` [1,6-Dimethyl-8β-[2'-pyrroyloxyethyl]-10α-methoxyergoline], the selectivity ratio in series [1] came out at 6600. Besides, the ED50 in series [2] is 0.06 mg/kg. Further, the LD50 at 168 h in series [3] was 450 mg/kg.
The like results for `CO[C@]12C[C@@H](CCOC(=O)c3[nH]c(C)cc3C)CN(C)[C@@H]1Cc1cn(C)c3cccc2c13` [1,6-Dimethyl-8β-[3',5'-dimethyl-2'-pyrroyloxyethyl]-10α-methoxyergoline] were, in that order, 3750, 0.12 mg/kg and 300 mg/kg.
On to `CO[C@]12C[C@@H](CCO)CN(C)[C@@H]1Cc1cn(C)c3cccc2c13` [(V), 1,6-Dimethyl-8β-hydroxyethyl-10α-methoxyergoline], for which the pharmacological activity result in series [5] was “slight pharmacological activity”.
In the case of `CN1C[C@H](C(=O)N[C@]2(C)O[C@@]3(O)[C@@H]4CCCN4C(=O)[C@H](Cc4ccccc4)N3C2=O)C[C@@H]2c3cccc4[nH]cc(c34)C[C@H]21` [Dihydroergotamine, reference compound], the ED50 in series [2] amounted to 15 mg/kg. For the same compound, the “IC50 (concentration inhibiting 50% of the contractions caused by 1 mcg/ml of Adrenaline)” value in series [4] amounted to 15 ng/mL.
Take `CO[C@]12C[C@@H](COC(=O)c3cncc(Br)c3)CN(C)[C@@H]1Cc1cn(C)c3cccc2c13` [Nicergoline, 1,6-dimethyl-8β-(5'-bromonicotinoyloxymethyl)-10α-methoxyergoline, reference compound]: the selectivity ratio in series [1] was 90. Also, the ED50 in series [2] stood at 7 mg/kg. Besides, in series [3], the LD50 at 168 h is 632 mg/kg. Besides, the “IC50 (concentration inhibiting 50% of the contractions caused by 1 mcg/ml of Adrenaline)” value in series [4] was found to be 1 ng/mL.
